# Data published in US6747033B2, “Fungicidal triazolopyrimid-7-ylideneamines” (BASF Aktiengesellschaft, priority 2000, dated 2004).
# Read-outs that look alike come from different tables or passages of the source.
# Experiments:
# Venturia inaequalis = test: In vivo fungicidal activity, Apple Scab (AS); also: ranges in brackets are in %
# Plasmopara viticola = test: In vivo fungicidal activity, Grape downy mildew (GDM); also: ranges in brackets are in %
# Botrytis cinera = test: In vivo fungicidal activity, Pepper Botrytis (PB); also: ranges in brackets are in %
# [1] = system: Pyricularia grisea f. sp. oryzae; assay type: in vivo; details: Rice Blast
# Alternara solani = test: In vivo fungicidal activity, Tomato early blight (TEB); also: ranges in brackets are in %
# Blumeria graminis = test: In vivo fungicidal activity, Wheat powdery mildew (WPM); also: ranges in brackets are in %
# [2] = system: Pseudocercosporella herpotrichoides; test: In vitro fungicidal activity, Cereal eye spot (PSDCHE); assay type: cell-based; design: key: 0: None; 3: slight; 5: moderate; 7: severe; 9: complete; details: 3-7 days of incubation
# Protocol: (§1) Test compounds are dissolved in acetone to give concentrations of 25, 10 and 1 ppm and are added to individual cell Walls (24-cell-well plates, Corning), which were previously filled with a suspension of ground plates, Corning), which were previously filled with a suspension of ground fungal mycelium in a chemically defined growth medium. After 3-7 days of incubation, inhibition of […] growth is recorded using the following scale: The data obtained are shown in Table II. [table]
# Pythium ultimum = test: In vitro fungicidal activity, Fruit rot (PYTHUL); assay type: cell-based; design: key: 0: None; 3: slight; 5: moderate; 7: severe; 9: complete; details: 3-7 days of incubation
# Protocol: as §1
# Rhizoctonia solani = test: In vitro fungicidal activity, Rice sheath blight (RHIZSO); assay type: cell-based; design: key: 0: None; 3: slight; 5: moderate; 7: severe; 9: complete; details: 3-7 days of incubation
# Protocol: as §1
Compound,AS disease control rating (Venturia inaequalis; 12.5 ppm spray),AS disease control rating (Venturia inaequalis; 50 ppm spray),AS disease control rating (Venturia inaequalis; 200 ppm spray),GDM disease control rating (Plasmopara viticola; 12.5 ppm spray),GDM disease control rating (Plasmopara viticola; 50 ppm spray),GDM disease control rating (Plasmopara viticola; 200 ppm spray),PB disease control rating (Botrytis cinera; 12.5 ppm spray),PB disease control rating (Botrytis cinera; 50 ppm spray),PB disease control rating (Botrytis cinera; 200 ppm spray),RB disease control rating ([1]; 12.5 ppm spray),RB disease control rating ([1]; 50 ppm spray),RB disease control rating ([1]; 200 ppm spray),TEB disease control rating (Alternara solani; 12.5 ppm spray),TEB disease control rating (Alternara solani; 50 ppm spray),TEB disease control rating (Alternara solani; 200 ppm spray),WPM disease control rating (Blumeria graminis; 12.5 ppm spray),WPM disease control rating (Blumeria graminis; 50 ppm spray),WPM disease control rating (Blumeria graminis; 200 ppm spray),PSDCH inhibition of mycelial growth rating ([2]; 1 ppm),PSDCH inhibition of mycelial growth rating ([2]; 10 ppm),other results
CC(N=c1c(-c2ccc(F)cc2F)c(Cl)n(C)c2ncnn12)C(F)(F)F (centres unmarked) [Example 7],0 (0),0 (0),6 (75-89),0 (0),0 (0),8 (96-99),2 (15-29),0 (0),0 (0),0 (0),0 (0),4 (45-59),0 (0),0 (0),0 (0),0 (0),4 (45-59),6 (75-89),0,1,PSDCH inhibition of mycelial growth rating ([2]; 25 ppm): 0; PYTHU inhibition of mycelial growth rating (Pythium ultimum; 1 ppm): 0; PYTHU inhibition of mycelial growth rating (Pythium ultimum; 10 ppm): 0; PYTHU inhibition of mycelial growth rating (Pythium ultimum; 25 ppm): 0; RHIZSO inhibition of mycelial growth rating (Rhizoctonia solani; 1 ppm): 5; RHIZSO inhibition of mycelial growth rating (Rhizoctonia solani; 10 ppm): 5; RHIZSO inhibition of mycelial growth rating (Rhizoctonia solani; 25 ppm): 5
Cn1c(Cl)c(-c2c(F)cc(F)cc2F)c(=NCC(F)(F)F)n2ncnc12 [Example 8],0 (0),0 (0),5 (60-74),5 (60-74),4 (45-59),5 (60-74),0 (0),0 (0),0 (0),0 (0),0 (0),4 (45-59),2 (15-29),0 (0),0 (0),2 (15-29),4 (45-59),7 (90-95),0,0,PSDCH inhibition of mycelial growth rating ([2]; 25 ppm): 0; PYTHU inhibition of mycelial growth rating (Pythium ultimum; 1 ppm): 0; PYTHU inhibition of mycelial growth rating (Pythium ultimum; 10 ppm): 0; PYTHU inhibition of mycelial growth rating (Pythium ultimum; 25 ppm): 0; RHIZSO inhibition of mycelial growth rating (Rhizoctonia solani; 1 ppm): 7; RHIZSO inhibition of mycelial growth rating (Rhizoctonia solani; 10 ppm): 7; RHIZSO inhibition of mycelial growth rating (Rhizoctonia solani; 25 ppm): 7
CC(N=c1c(-c2ccccc2Cl)c(Cl)nc2n(C)cnn12)C(F)(F)F (centres unmarked) [Example 15],0 (0),0 (0),0 (0),2 (15-29),4 (45-59),6 (75-89),0 (0),0 (0),2 (15-29),0 (0),0 (0),0 (0),0 (0),0 (0),0 (0),0 (0),0 (0),3 (30-44),0,0,PSDCH inhibition of mycelial growth rating ([2]; 25 ppm): 0; PYTHU inhibition of mycelial growth rating (Pythium ultimum; 1 ppm): 0; PYTHU inhibition of mycelial growth rating (Pythium ultimum; 10 ppm): 0; PYTHU inhibition of mycelial growth rating (Pythium ultimum; 25 ppm): 0; RHIZSO inhibition of mycelial growth rating (Rhizoctonia solani; 1 ppm): 0; RHIZSO inhibition of mycelial growth rating (Rhizoctonia solani; 10 ppm): 0; RHIZSO inhibition of mycelial growth rating (Rhizoctonia solani; 25 ppm): 3
CC(N=c1c(-c2c(F)cccc2F)c(Cl)nc2n(C)cnn12)C(F)(F)F (centres unmarked) [Example 14],0 (0),0 (0),6 (75-89),0 (0),4 (45-59),7 (90-95),0 (0),0 (0),0 (0),0 (0),0 (0),0 (0),0 (0),0 (0),0 (0),0 (0),0 (0),0 (0),–,–,–
Cn1c(Cl)c(-c2c(F)cc(F)cc2F)c(=NCC(F)(F)F)n2ncnc12 [Example 17],0 (0),2 (15-29),6 (75-89),0 (0),0 (0),5 (60-74),0 (0),0 (0),0 (0),0 (0),3 (30-44),4 (45-59),0 (0),0 (0),0 (0),0 (0),2 (15-29),6 (75-89),0,1,PSDCH inhibition of mycelial growth rating ([2]; 25 ppm): 3; PYTHU inhibition of mycelial growth rating (Pythium ultimum; 1 ppm): 0; PYTHU inhibition of mycelial growth rating (Pythium ultimum; 10 ppm): 5; PYTHU inhibition of mycelial growth rating (Pythium ultimum; 25 ppm): 7; RHIZSO inhibition of mycelial growth rating (Rhizoctonia solani; 1 ppm): 7; RHIZSO inhibition of mycelial growth rating (Rhizoctonia solani; 10 ppm): 7; RHIZSO inhibition of mycelial growth rating (Rhizoctonia solani; 25 ppm): 7
CC(N=c1c(-c2c(F)cccc2F)c(Cl)n(C)c2ncnn12)C(F)(F)F (centres unmarked) [Example 5],0 (0),0 (0),0 (0),6 (75-89),6 (75-89),5 (60-74),0 (0),0 (0),1 (1-14),0 (0),0 (0),0 (0),0 (0),0 (0),0 (0),0 (0),3 (30-44),6 (75-89),–,–,–
COc1cc(F)c(-c2c(Cl)nc3n(C)cnn3c2=NC(C)C(F)(F)F)c(F)c1 (centres unmarked) [Example 13],0 (0),0 (0),0 (0),0 (0),0 (0),0 (0),0 (0),0 (0),0 (0),0 (0),0 (0),0 (0),0 (0),0 (0),0 (0),0 (0),3 (30-44),5 (60-74),–,–,–
CC(N=c1c(-c2ccc(F)cc2F)c(Cl)nc2n(C)cnn12)C(F)(F)F (centres unmarked) [Example 16],0 (0),5 (60-74),6 (75-89),–,5 (60-74),7 (90-95),0 (0),0 (0),0 (0),0 (0),0 (0),0 (0),0 (0),0 (0),0 (0),0 (0),0 (0),0 (0),0,0,PSDCH inhibition of mycelial growth rating ([2]; 25 ppm): 0; PYTHU inhibition of mycelial growth rating (Pythium ultimum; 1 ppm): 0; PYTHU inhibition of mycelial growth rating (Pythium ultimum; 10 ppm): 5; PYTHU inhibition of mycelial growth rating (Pythium ultimum; 25 ppm): 7; RHIZSO inhibition of mycelial growth rating (Rhizoctonia solani; 1 ppm): 5; RHIZSO inhibition of mycelial growth rating (Rhizoctonia solani; 10 ppm): 7; RHIZSO inhibition of mycelial growth rating (Rhizoctonia solani; 25 ppm): 7
